Five compounds from patent US20030162838A1, “Bactericide, antiseptic, dermally applicable composition, washing composition, antibacterial fiber aggregate, method for eradicating a microorganism, and method for inhibiting the proliferation of a microorgamism” (Ajinomoto Co., Inc., priority 2001, published 2003) can be followed below.

“Also recorded” adds a separate entry of the source.

Holding throughout (format): cell-based
In assay [1] the test system is Streptococcus mutans (ATCC35275). Put plainly: Antibacterial activity evaluation, agar dilution MIC. The following applies: Muller-Hinton agar medium, 35° C. for 48 hours. The text has this:
(§1) 4-Guanidinobutyldodecanamide hydrochloride (LAG-HCl) which is a salt of an amide group-containing guanidine derivative and N-cocoyl-L-arginine ethyl ester-DL-pyrrolidone carboxylate which is an N-long chain acyl basic amino acid derivative were examined for their concentrations at which the growth of each test strain was inhibited completely (MIC).
(§2) The test strains employed were Escherichia coli (ATCC8739), Pseudomonas aeruginosa (ATCC9027), Staphylococcus aureus (ATCC6538), Streptococcus mutans (ATCC35275), Propionibacterium acnes (ATCC6919), Candida albicans (ATCC10231), Aspergillus niger (ATCC16404), Trichophyton mentagrophytes (ATCC11480) and Malassezia furfur (ATCC14521).
(§3) A bacterial cell suspension of E.coli, P.aeruginosa, S.aureus and S.mutans was obtained by incubation in a sensitive broth medium at 35° C. for 20 hours. The bacterial cell suspension of P.acnes was obtained by anaerobic incubation in a GAM agar medium at 35° C. for 20 hours followed by collecting cells with a platinum loop spatula followed by suspending the cells in a sterilized physiological saline at a cell density at about 10^8 cells/ml. The bacterial cell suspension of C.albicans was obtained by incubation in a potato dextrose agar medium at 25° C. for 48 hours followed by collecting cells with a platinum loop spatula followed by suspending the cells in a sterilized physiological saline at a cell density at about 10^6 cells/ml. The bacterial cell suspension of A.niger was obtained by incubation in a potato dextrose agar medium at 25° C. for 7 days followed by collecting cells with a platinum loop spatula followed by suspending the cells in a sterilized physiological saline followed by filtration through a sterilized gauze to adjust at a cell density at about 10^6 cells/ml. The bacterial cell suspension of T.mentagrophytes was obtained by incubation in a Sabouraud's agar medium at 25° C. for 7 days followed by collecting spores and hyphae with a platinum loop spatula followed by suspending the cells in a sterilized physiological saline followed by pelletizing using a homogenizer to adjust at a cell density at about 10^6 cells/ml. The bacterial cell suspension of M.furfur was obtained by incubation in an YMO agar medium at 25° C. for 7 days followed by suspending the test strain in a sterilized phosphate-buffered physiological saline at a cell density at about 10^6 cells/ml.
(§4) To obtain an antibacterial activity assay sample, 4-guanidinobutyldodecanamide hydrochloride was dissolved in ethylene glycol at 2% which was used as a mother liquor which was diluted with water subsequently. N-cocoyl-L-arginine ethyl ester-DL-pyrrolidone carboxylate was dissolved in water to prepare a test solution. The respective minimum growth inhibition concentration at which no microbial growth was observed was determined (μg/ml).
(§5) The agar medium (19 ml) was dissolved once and then kept at 50° C., and to this solution 1 ml of each diluted […] was added until reaching the intended concentration and mixed thoroughly and then solidified.
(§6) Subsequently, the cell suspension of each test strain was sampled using a platinum loop spatula, with which an about 1 cm line was drawn on the antibacterial agent-supplemented agar plate. Each plate was incubated at the respective temperature for the respective time period shown below. […]
(§7) For E.coli, P.aeruginosa, S.aureus, S.mutans, P.acnes, C.albicans, A.niger, T.mentagrophytes, M.furfur, the respective agar medium indicated in the Table 1 shown above was shown. […]

Assay [2] has as its system Staphylococcus aureus (ATCC6538). The description is as above. The following applies: Muller-Hinton agar medium, 35° C. for 48 hours.
Source text: as §1, §2, §3, §4, §5, §6, §7

Assay [3] deals with Escherichia coli (ATCC8739). The description is as above. The following applies: Muller-Hinton agar medium, 35° C. for 48 hours.
Source text: as §1, §2, §3, §4, §5, §6, §7

Assay [4] deals with Aspergillus niger (ATCC16404). The description is as above. The following applies: Potato dextrose agar medium, 25° C. for 5 days.
Source text: as §1, §2, §3, §4, §5, §6, §7

For assay [5], the system named is Propionibacterium acnes (ATCC6919). The description is as above. The settings on record: GAM agar medium, 35° C. for 48 hours (anaerobic incubation).
Source text: as §1, §2, §3, §4, §5, §6, §7

Assay [6] has as its system Malassezia furfur (ATCC14521). The assay is described as above. The following applies: YMO agar medium, 25° C. for 7 days.
Source text: as §1, §2, §3, §4, §5, §6, §7

Assay [7] has as its system Candida albicans (ATCC10231). The description is as above. The settings on record: Potato dextrose agar medium, 25° C. for 48 hours.
Source text: as §1, §2, §3, §4, §5, §6, §7

The subject of assay [8] is Pseudomonas aeruginosa (ATCC9027). The description is as above. The settings on record: Muller-Hinton agar medium, 35° C. for 48 hours.
Source text: as §1, §2, §3, §4, §5, §6, §7

The test system of assay [9] is Trichophyton mentagrophytes (ATCC11480). Described as above. The following applies: Sabouraud's agar medium, 25° C. for 7 days.
Source text: as §1, §2, §3, §4, §5, §6, §7

A further assay concerns test strains. Kind of assay: Antibacterial activity evaluation, overall verdict over all test strains. The following applies: summary of the MIC tables.
Source text: as §1, §2, §4
(§8) In order to evaluate the contribution of acyl moiety to the antibacterial activity in amido group-containing guanidine derivatives, 4-guanidinobutyldecanamide acetate (DAG-AcOH), 4-guanidinobutyldodecanamide acetate (LAG-AcOH), 4-guanidinobutymyristilamide acetate (MAG-AcOH), 4-guanidinobutylpalmitylamide acetate (PAG-AcOH) were examined for their concentrations at which the growth of each test strain was inhibited completely (MIC).
(§9) The test strains employed were Escherichia coli (ATCC8739), Pseudomonas aeruglnosa (ATCC9027), Staphylococcus aureus (ATCC6538), Streptococcus mutans (ATCC35275), Propionibacterium acnes (ATCC6919), Candida albicans (ATCC10231), Aspergillus niger (ATCC16404), Trichophyton mentagrophytes (ATCC11480), Malassezia furfur (ATCC14521), MRSA and Cladosporium cladosporioides (IFO6348).
(§10) The respective minimum growth inhibition concentration at which no microbial growth was observed was determined (Table 4).

The subject of assay [10] is Cladosporium cladosporioides (IFO6348). Kind of assay: Antibacterial activity evaluation, agar dilution MIC. The following applies: Potato dextrose agar medium, 25° C. for 5 days.
Source text: as §8, §9
The bacterial cell suspension of Cladosporium cladosporioides was obtained by incubation in a potato dextrose agar medium at 25° C. for 7 days followed by collecting cells with a platinum loop spatula followed by suspending […] the cells in a sterilized physiological saline followed by filtration through a sterilized gauze to adjust at a cell density at about 10^6 cells /ml.
(§11) To obtain an antibacterial activity assay sample, each compound was dissolved in water to prepare a test solution, which was used as a mother liquor which was diluted with water subsequently.
as §10
(§12) The agar medium (19 ml) was dissolved once and then kept at 50° C., and to this solution 1 ml of each diluted […] was added until reaching the intended concentration and mixed thoroughly and solidified.
(§13) Subsequently, the cell suspension of each test strain was sampled using a platinum loop spatula, with which an about 1 cm line was drawn on the antibacterial agent-supplemented agar plate. Each plate was incubated at the respective temperature for the respective time period shown below.

A further assay concerns MRSA. Described as above. The settings on record: Muller-Hinton agar medium, 35° C. for 48 hours.
Source text: as §8, §9
The bacterial cell suspension of MRSA was obtained by incubation in a sensitive broth medium at 35° C. for 20 hours.
as §11, §10, §12, §13

Take “4-Guanidinobutyldodecanamide hydrochloride [LAG-HCl]”: the “MIC, S. mutans” value in [1] is 5 to 7.5 µg/mL. The “MIC, S. aureus” value in [2] fell in the range of 7.5 to 10 µg/mL. For the same compound, in [3], the “MIC, E. coli” value lay within 75 to 100 µg/mL. The “MIC, A. niger” value in [4] is 200 to 300 µg/mL. For the same compound, the “MIC, P. acnes” value in assay [5] was in the range of 7.5 to 10 µg/mL. In addition, the “MIC, M. furfur” value in assay [6] fell in the range of 100 to 150 µg/mL. Besides, the “MIC, C. albicans” value in assay [7] was 500 to 750 µg/mL. Also, the “MIC, P. aeruginosa” value in assay [8] lay in the range of 75 to 100 µg/mL. In addition, the “MIC, T. mentagrophytes” value in [9] was in the range of 75 to 100 µg/mL. Moreover, the “antibacterial activity against any of the test strains (verdict in words)” value (from here on “antibacterial activity against any”) in the assay on test strains is “satisfactory antibacterial activity”.

With `CC(=O)O.CCCCCCCCCC(=O)NCCCCNC(=N)N` [DAG-AcOH, 4-guanidinobutyldecanamide acetate], in assay [10], the “MIC, C. cladosporioides” value was in the range of 200 to 300 µg/mL. Besides, in assay [1], the “MIC, S. mutans” value lay within 20 to 30 µg/mL. Besides, the “MIC, S. aureus” value in assay [2] was 30 to 50 µg/mL. Further, the “MIC, E. coli” value in assay [3] lay within 150 to 200 µg/mL. In addition, in [4], the “MIC, A. niger” value lay within 300 to 500 µg/mL. In assay [5], the “MIC, P. acnes” value was in the range of 30 to 50 µg/mL. Moreover, the “MIC, M. furfur” value in assay [6] was in the range of 50 to 75 µg/mL. Moreover, the “MIC, C. albicans” value in [7] lay within 300 to 500 µg/mL. Moreover, the “MIC, P. aeruginosa” value in assay [8] was 200 to 300 µg/mL. Further, the “MIC, T. mentagrophytes” value in [9] lay within 75 to 100 µg/mL. In addition, the “MIC, MRSA” value in the assay with MRSA lay within 50 to 75 µg/mL. Also, in the assay on test strains, the “antibacterial activity against any” value is reported as “satisfactory antibacterial activity”.

As for `CC(=O)O.CCCCCCCCCCCC(=O)NCCCCNC(=N)N` [LAG-AcOH, 4-guanidinobutyldodecanamide acetate], the “MIC, C. cladosporioides” value in assay [10] fell in the range of 150 to 200 µg/mL. In assay [1], the “MIC, S. mutans” value fell in the range of 5 to 7.5 µg/mL. Moreover, the “MIC, S. aureus” value in [2] lay within 2 to 3 µg/mL. Further, in assay [3], the “MIC, E. coli” value lay in the range of 30 to 50 µg/mL. In addition, in [4], the “MIC, A. niger” value was 200 to 300 µg/mL. Also, in assay [5], the “MIC, P. acnes” value was in the range of 10 to 15 µg/mL. Also, the “MIC, M. furfur” value in [6] was 50 to 75 µg/mL. Moreover, the “MIC, C. albicans” value in assay [7] fell in the range of 300 to 500 µg/mL. For the same compound, the “MIC, P. aeruginosa” value in assay [8] lay in the range of 75 to 100 µg/mL. Also, the “MIC, T. mentagrophytes” value in assay [9] was 30 to 50 µg/mL. Besides, in the assay on MRSA, the “MIC, MRSA” value fell in the range of 10 to 15 µg/mL. Moreover, in the assay on test strains (acetate), the “antibacterial activity against any” value is listed as “satisfactory antibacterial activity; also recorded: the best antibacterial activity”.

In the case of `CC(=O)O.CCCCCCCCCCCCCC(=O)NCCCCN=C(N)N` [MAG-AcOH, 4-guanidinobutymyristilamide acetate], the “MIC, C. cladosporioides” value in [10] lay within 200 to 300 µg/mL. Besides, the “MIC, S. mutans” value in assay [1] is 3 to 5 µg/mL. Also, the “MIC, S. aureus” value in [2] is 3 to 5 µg/mL. Further, in assay [3], the “MIC, E. coli” value was 50 to 75 µg/mL. In addition, the “MIC, A. niger” value in assay [4] was 300 to 500 µg/mL. In addition, the “MIC, P. acnes” value in assay [5] was in the range of 10 to 15 µg/mL. Besides, the “MIC, M. furfur” value in assay [6] is 100 to 150 µg/mL. Moreover, the “MIC, C. albicans” value in assay [7] lay in the range of 500 to 750 µg/mL. Further, the “MIC, P. aeruginosa” value in assay [8] lay in the range of 300 to 500 µg/mL. The “MIC, T. mentagrophytes” value in [9] lay within 75 to 100 µg/mL. Further, the “MIC, MRSA” value against MRSA is 10 to 15 µg/mL. Further, in the assay on test strains, the “antibacterial activity against any” value is “satisfactory antibacterial activity”.

For “N-cocoyl-L-arginine ethyl ester-DL-pyrrolidone carboxylate [CAE, reference compound]”, in assay [1], the “MIC, S. mutans” value lay in the range of 5 to 7.5 µg/mL. The “MIC, S. aureus” value in assay [2] lay in the range of 5 to 7.5 µg/mL. Further, the “MIC, E. coli” value in assay [3] was in the range of 75 to 100 µg/mL. The “MIC, A. niger” value in assay [4] was in the range of 300 to 500 µg/mL. The “MIC, P. acnes” value in assay [5] fell in the range of 20 to 30 µg/mL. Moreover, the “MIC, M. furfur” value in assay [6] lay within 75 to 100 µg/mL. Besides, in [7], the “MIC, C. albicans” value is 300 to 500 µg/mL. Further, the “MIC, P. aeruginosa” value in [8] was 200 to 300 µg/mL. For the same compound, the “MIC, T. mentagrophytes” value in assay [9] was in the range of 100 to 150 µg/mL. Moreover, the “antibacterial activity against any” value in the assay with test strains is given as “satisfactory antibacterial activity”.
